# Assay results as given in patent publication US20260365628A1, “SUBSTITUTED 3,4-DIHYDROQUINOLINONE INHIBITORS OF TSHR” (Septerna, Inc., priority 2022, published 2026).
# Biological target: T1, hTSHR (Homo sapiens, UniProt P16473)
# T1 construct: expressed in transfected cells
# Assay: hTSHR TR-FRET cAMP Assay (inhibition of M22-stimulated cAMP production)
# Format: cell-based
# Conditions: Expi293F Inducible cells stably expressing hTSHR; cAMP HTRF; stimulated with EC80 of anti-TSHR antibody M22; 15 min compound preincubation, 30 min at 37° C.; read-out: Activity (IC50 bins)
# How it was run: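 Readout was a cAMP HTRF ratio of 655/620 nm after lysis, scaled between the EC80 M22 signal (0% inhibition) and no-agonist vehicle (100%). Frozen induced Expi293F-hTSHR cells saw test compounds (0.5% DMSO) for 15 min at 37 °C before 30 min of M22 stimulation at EC80.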
# T1 sequence (P16473 21-764): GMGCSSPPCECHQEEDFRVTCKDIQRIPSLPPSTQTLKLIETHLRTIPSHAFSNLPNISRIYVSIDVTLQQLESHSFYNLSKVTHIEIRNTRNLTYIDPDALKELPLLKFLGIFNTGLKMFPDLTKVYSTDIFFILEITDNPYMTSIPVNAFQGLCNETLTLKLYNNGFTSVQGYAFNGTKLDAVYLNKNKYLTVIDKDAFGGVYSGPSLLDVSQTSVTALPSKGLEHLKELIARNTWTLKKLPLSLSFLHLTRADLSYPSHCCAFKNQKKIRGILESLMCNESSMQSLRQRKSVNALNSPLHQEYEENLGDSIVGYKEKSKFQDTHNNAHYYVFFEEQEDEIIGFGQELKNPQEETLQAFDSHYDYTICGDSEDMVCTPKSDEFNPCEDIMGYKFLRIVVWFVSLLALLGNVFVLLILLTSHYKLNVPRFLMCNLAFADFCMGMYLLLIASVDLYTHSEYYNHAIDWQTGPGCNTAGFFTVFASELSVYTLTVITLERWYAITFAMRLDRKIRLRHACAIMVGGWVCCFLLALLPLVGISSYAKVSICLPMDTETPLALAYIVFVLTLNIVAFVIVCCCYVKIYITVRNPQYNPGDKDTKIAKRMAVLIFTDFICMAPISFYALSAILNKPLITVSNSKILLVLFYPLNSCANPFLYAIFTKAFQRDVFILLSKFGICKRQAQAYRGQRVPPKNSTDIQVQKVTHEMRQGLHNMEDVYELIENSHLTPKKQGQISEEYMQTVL
row,SMILES,IC50
1,"C[C@H]1Oc2cc(NC(=O)NC(C)(C)C)c(C(F)(F)F)cc2N([C@@H](C)c2ccccc2)C1=O [Example 349, 1-(tert-butyl)-3-((R)-2-methyl-3-oxo-4-((S)-1-phenylethyl)-6-(trifluoromethyl)-3,4-dihydro-2H-benzo[b][1,4]oxazin-7-yl)urea]",< 0.1 µM
2,"C[C@H]1Oc2cc(NC(=O)OC3CCCC3)ccc2N([C@@H](C)c2ccccc2)C1=O [Example 303, cyclopentyl ((R)-2-methyl-3-oxo-4-((S)-1-phenylethyl)-3,4-dihydro-2H-benzo[b][1,4]oxazin-7-yl)carbamate]",< 0.1 µM
3,C[C@H](c1cccc(Cl)c1)N1C(=O)N(C)Cc2cc(NC(=O)NC(C)(C)C)ccc21 [Example 52],> 1 µM
4,"C[C@H]1Oc2cc(NC(=O)NC(C)(C)C)ccc2N(Cc2ccccc2Cl)C1=O [Example 178, (R)-1-(tert-butyl)-3-(4-(2-chloro-benzyl)-2-methyl-3-oxo-3,4-dihydro-2H-benzo [b][1,4]oxazin-7-yl)urea]",0.1 to 1 µM
5,"CC(c1cc(Cl)ccc1C#N)N1C(=O)COc2cc(NC(=O)NC(C)(C)C)ccc21 (centres unmarked) [Example 293, 1-(tert-butyl)-3-(4-(1-(5-chloro-2-cyanophenyl)ethyl)-3-oxo-3,4-dihydro-2H-benzo[b][1,4]oxazin-7-yl)urea]",> 1 µM
6,"CC1(NC(=O)Nc2ccc3c(c2)ncc(=O)n3Cc2ccccc2)CCCC1 [Example 193, 1-(1-benzyl-2-oxo-1,2-dihydroquinoxalin-6-yl)-3-(1-methylcyclopentyl) urea]",0.1 to 1 µM
7,"C[C@@H](c1ccccc1)N1C(=O)CCc2cc(NC(=O)NC(C)(C)C)ccc21 [Example 13, (S)-1-(tert-butyl)-3-(2-oxo-1-(1-phenylethyl)-1,2,3,4-tetrahydroquinolin-6-yl)urea]",< 0.1 µM
8,"C[C@H]1Oc2cc(NC(=O)NC(C)(C)C)c(C#N)cc2N(Cc2cc(Cl)ccc2F)C1=O [Example 373, (R)-1-(tert-butyl)-3-(4-(5-chloro-2-fluorobenzyl)-6-cyano-2-methyl-3-oxo-3,4-dihydro-2H-benzo[b][1,4]oxazin-7-yl)urea]",0.1 to 1 µM
9,"COCC1(NC(=O)Nc2ccc3c(c2)O[C@H](C)C(=O)N3[C@@H](C)c2ccccc2)CCC1 [Example 261, 1-(1-(methoxy-methyl)cyclobutyl)-3-((R)-2-methyl-3-oxo-4-((S)-1-phen-ylethyl)-3,4-dihydro-2H-benzo [b][1,4]oxazin-7-yl)urea]",0.1 to 1 µM
10,"CC(c1cccc2ncccc12)n1c(=O)cnc2cc(NC(=O)NC(C)(C)C)ccc21 (centres unmarked) [Example 252, 1-(tert-butyl)-3-(2-oxo-1-(1-(quinolin-5-yl)ethyl)-1,2-dihydro-quinoxalin-6-yl)urea]",> 1 µM
11,"CC(c1ccccc1)N1C(=O)CCc2cc(NC(=O)NC(C)(C)C)ccc21 (centres unmarked) [Example 3, 1-(tert-butyl)-3-(2-oxo-1-(1-phenylethyl)-1,2,3,4-tetrahydroquinolin-6-yl)urea]",< 0.1 µM
12,"CC(C)(C)NC(=O)Nc1ccc2c(c1)CCC(=O)N2Cc1cccc(C(F)(F)F)c1F [Example 54, 1-(tert-butyl)-3-(1-(2-fluoro-3-(trifluoromethyl)benzyl)-2-oxo-1,2,3,4-tetrahydroquinolin-6-yl)urea]",< 0.1 µM
13,"C[C@H]1Oc2cc(NC(=O)NC3(C(F)(F)F)CC(F)(F)C3)ccc2N([C@@H](C)c2ccccc2)C1=O [Example 264, 1-(3,3-difluoro-1-(trifluoromethyl)-cyclobutyl)-3-((R)-2-methyl-3-oxo-4-((S)-1-phenylethyl)-3,4-dihydro-2H-benzo[b][1,4]oxazin-7-yl)urea]",0.1 to 1 µM
14,"C[C@H]1Oc2cc(NC(=O)NC(C)(C)C)c(F)cc2N([C@@H](C)c2ccccc2)C1=O [Example 328, 1-(tert-butyl)-3-((R)-6-fluoro-2-methyl-3-oxo-4-((S)-1-phenylethyl)-3,4-dihydro-2H-benzo[b][1,4]oxazin-7-yl)urea]",0.1 to 1 µM
15,"C[C@@H](c1cccc(CC(F)(F)F)c1)n1c(=O)cnc2cc(NC(=O)NC(C)(C)C)ccc21 [Example 102, (S)-1-(tert-butyl)-3-(2-oxo-1-(1-(3-(2,2,2-trifluoroethyl)phe-nyl)ethyl)-1,2-dihydroquinoxalin-6-yl)urea]",0.1 to 1 µM
16,"C[C@H]1Oc2cc(NC(=O)NC(C)(C)C)c(F)cc2N(Cc2cccc(OC(F)F)c2)C1=O [Example 338, (R)-1-(tert-butyl)-3-(4-(3-(difluoromethoxy)benzyl)-6-fluoro-2-methyl-3-oxo-3,4-dihydro-2H-benzo[b][1,4]oxazin-7-yl)urea]",0.1 to 1 µM
17,"Cc1ccc(Cl)cc1[C@H](C)n1c(=O)cnc2cc(NC(=O)NC(C)(C)C)ccc21 [Example 141, (S)-1-(tert-butyl)-3-(1-(1-(5-chloro-2-methylphenyl)ethyl)-2-oxo-1,2-dihydroquinoxalin-6-yl)urea]",0.1 to 1 µM
18,C[C@@H](c1cccc([C@@H](O)C(F)(F)F)n1)n1c(=O)cnc2cc(NC(=O)NC(C)(C)C)ccc21 [Example 153],0.1 to 1 µM

row,SMILES,IC50
1,"C[C@H]1Oc2c(cc(F)c(NC(=O)NC(C)(C)C)c2F)N(Cc2cccc(C(F)F)c2)C1=O [Example 336, (R)-1-(tert-butyl)-3-(4-(3-(difluoromethyl)benzyl)-6,8-difluoro-2-methyl-3-oxo-3,4-dihydro-2H-benzo[b][1,4]oxazin-7-yl)urea]",< 0.1 µM
2,"C[C@H]1Oc2c(cc(C#N)c(NC(=O)NC(C)(C)C)c2F)N(Cc2ccccc2)C1=O [Example 369, (R)-1-(4-benzyl-6-cyano-8-fluoro-2-methyl-3-oxo-3,4-dihydro-2H-benzo[b][1,4]oxazin-7-yl)-3-(tert-butyl)urea]",< 0.1 µM
3,"Cc1nc2cc(NC(=O)NC(C)(C)C)ccc2n(Cc2cccc(Cl)c2)c1=O [Example 273, 3-tert-butyl-1-{1-[(3-chlorophenyl)methyl]-3-methyl-2-oxoquinoxalin-6-yl}urea]",0.1 to 1 µM
4,"C[C@@H](c1cc(F)ccc1F)n1c(=O)cnc2cc(NC(=O)NC(C)(C)C)ccc21 [Example 148, (S)-1-(tert-butyl)-3-(1-(1-(2,5-difluorophenyl)ethyl)-2-oxo-1,2-dihydroquinoxalin-6-yl)urea]",0.1 to 1 µM
5,"C[C@@H](c1cccc(Cl)c1)N1C(=O)COc2cc(NC(=O)NC(C)(C)C)ccc21 [Example 37, (S)-1-(tert-butyl)-3-(4-(1-(3-chlorophenyl)ethyl)-3-oxo-3,4-dihydro-2H-benzo[b][1,4]oxazin-7-yl)urea]",< 0.1 µM
6,"C[C@H]1Oc2cc(NC(=O)NC(C)(C)C)ccc2N([C@@H](C)c2cc(Cl)ccc2Cl)C1=O [Example 190, 1-(tert-butyl)-3-((R)-4-((S)-1-(2,5-dichlorophenyl)ethyl)-2-methyl-3-oxo-3,4-dihydro-2H-benzo[b][1,4]oxazin-7-yl)urea]",0.1 to 1 µM
7,"C[C@H]1Oc2cc(NC(=O)OC3CCCC3)ccc2N(Cc2cccc(C(F)(F)F)n2)C1=O [Example 304, cyclopentyl N-[(2R)-2-methyl-3-oxo-4-{[6-(trifluoromethyl)pyridin-2-yl]methyl}-2H-1,4-benzoxazin-7-yl]carbamate]",< 0.1 µM
8,"COc1cccc(CN2C(=O)[C@@H](C)Oc3cc(NC(=O)NC(C)(C)C)ccc32)c1 [Example 164, (R)-1-(tert-butyl)-3-(4-(3-methoxy-benzyl)-2-methyl-3-oxo-3,4-dihydro-2H-benzo [b][1,4]oxazin-7-yl)urea]",0.1 to 1 µM
9,"CC(C)(C)NC(=O)Nc1cc(F)c2c(c1)CCC(=O)N2Cc1ccccc1 [Example 69, 1-(1-benzyl-8-fluoro-2-oxo-1,2,3,4-tetrahydroquinolin-6-yl)-3-(tert-butyl)urea]",0.1 to 1 µM
10,"C[C@H]1Oc2cc(NC(=O)NC3(C)CCCC3)ccc2N(Cc2cccc(OC(F)(F)F)n2)C1=O [Example 321, (R)-1-(2-methyl-3-oxo-4-((6-(trifluoromethoxy)pyridin-2-yl)methyl)-3,4-dihydro-2H-benzo[b][1,4]oxazin-7-yl)-3-(1-methylcyclopentyl)urea]",< 0.1 µM
11,"C[C@@H](c1cccc([C@H](O)C(F)(F)F)c1)n1c(=O)cnc2cc(NC(=O)NC(C)(C)C)ccc21 [Example 156, 1-(tert-butyl)-3-(2-oxo-1-((S)-1-(3-((R)-2,2,2-trifluoro-1-hydroxyethyl)phe-nyl)ethyl)-1,2-dihydroquinoxalin-6-yl)urea]",0.1 to 1 µM
12,"C[C@@H](c1cccc(C(F)(F)F)n1)n1c(=O)cnc2cc(NC(=O)CCc3cccc(C(F)(F)F)c3)ccc21 [Example 299, (S)—N-(2-oxo-1-(1-(6-(trifluoromethyl)pyridin-2-yl)ethyl)-1,2-dihydroquinoxalin-6-yl)-3-(3-(trifluoromethyl)phenyl)propanamide]",0.1 to 1 µM
13,"C[C@@H](c1cccc(OC(F)(F)F)n1)n1c(=O)cnc2cc(NC(=O)NC3(C)CCC3)ccc21 [Example 106, (S)-1-(1-methylcyclobutyl)-3-(2-oxo-1-(1-(6-(trifluoromethoxy)pyri-din-2-yl)ethyl)-1,2-dihydroquinoxalin-6-yl)urea]",0.1 to 1 µM
14,C[C@@H](c1cccc(OC(F)(F)F)c1)n1c(=O)cnc2cc(NC(=O)NC3CCC(F)(F)CC3)ccc21 [Example 216],0.1 to 1 µM
15,"C[C@@H](c1cccc(OCCC(F)(F)F)c1)n1c(=O)cnc2cc(NC(=O)NC(C)(C)C)ccc21 [Example 109, (S)-1-(tert-butyl)-3-(2-oxo-1-(1-(3-(3,3,3-trifluoropropoxy)phenyl)ethyl)-1,2-dihydroquinoxalin-6-yl)urea]",0.1 to 1 µM
16,"C[C@@H](c1cccc(OC(F)(F)F)c1)n1c(=O)cnc2cc(NC(=O)NC(C)(C)C)c(C#N)cc21 [Example 352, 3-tert-butyl-1-{7-cyano-2-oxo-1-[(1S)-1-[3-(trifluoromethoxy)phenyl]ethyl]quinoxalin-6-yl}urea]",0.1 to 1 µM
17,"C[C@H](c1ccccc1)N1C(=O)[C@@H](C)Oc2cc(NC(=O)NC(C)(C)C)ccc21 [Example 331, 1-(tert-butyl)-3-((R)-2-methyl-3-oxo-4-((R)-1-phenylethyl)-3,4-dihydro-2H-benzo[b][1,4]oxazin-7-yl)urea]",> 1 µM
